Literature values, collected in patent US20020122815A1, “Compositions and methods of carbohydrate dosing” (priority 2001, published 2002).

Legend:
serum glucose levels [1] = conditions: compared with glucose or sucrose
[2] = in large amounts
serum glucose levels [3] = conditions: serum glucose response to 50 g carbohydrate as percentage of standard meal (usually 50 g glucose)

Structure (SMILES)	rise in serum glucose (serum glucose levels [1])	adverse effect [2]	Glycemic Index (serum glucose levels [3])
OC[C@@H](O)[C@@H](O)[C@H](O)[C@H](O)CO [Mannitol]	less of a rise in serum glucose than glucose or sucrose	may cause diarrhea	–
O=C(CO)[C@@H](O)[C@H](O)[C@H](O)CO [fructose]	–	–	23
OC[C@@H](O)[C@@H](O)[C@H](O)[C@@H](O)CO [sorbitol]	less of a rise in serum glucose than glucose or sucrose	may cause diarrhea	–
OC[C@H]1O[C@@](CO)(O[C@H]2O[C@H](CO)[C@@H](O)[C@H](O)[C@H]2O)[C@@H](O)[C@@H]1O [sucrose]	–	–	60-65
